≈ marks a conversion by molar mass, not a printed value.
Key:
Format in all cases: functional
[1] = system: Neisseria meningitidis; experiment: Antimicrobial activity against fluoroquinolone-intermediate Neisseria meningitidis by disk diffusion method
[2] = system: Neisseria meningitidis; experiment: Antimicrobial activity against fluoroquinolone-susceptible Neisseria meningitidis by disk diffusion method; settings: for MIC: Neisseria meningitidis
[3] = system: Neisseria meningitidis; experiment: Antimicrobial activity against fluoroquinolone-resistant Neisseria meningitidis expressing gyrA mutant by disk diffusion method
[4] = system: Neisseria meningitidis; experiment: Antimicrobial activity against fluoroquinolone-susceptible Neisseria meningitidis at 30 ug by disk diffusion method; settings: read-out: IZ
[5] = system: Neisseria meningitidis; experiment: Antimicrobial activity against fluoroquinolone-resistant Neisseria meningitidis expressing gyrA mutant at 30 ug by disk diffusion method; settings: read-out: IZ

O=C(O)c1cn(C2CC2)c2cc(N3CCNCC3)c(F)cc2c1=O [CIPROFLOXACIN]
inhibition zone (IZ) [1]: 35 mm
MIC ([1]; Neisseria meningitidis): 0.06 µg/mL (≈ 0.181 µM)
inhibition zone (IZ) [2]: 34 mm
MIC [2]: ≤ 0.03 µg/mL
inhibition zone (IZ) [3]: 29 mm
MIC ([3]; Neisseria meningitidis): ≥ 0.12 µg/mL

CCn1cc(C(=O)O)c(=O)c2ccc(C)nc21 [NALIDIXIC ACID]
zone of inhibition at 30 µg/disc [4]: 28 mm
MIC [2]: 0.25 µg/mL (≈ 1.08 µM)
zone of inhibition at 30 µg/disc [5]: < 15 mm

From ChEMBL document CHEMBL1629607, “Nalidixic acid disk for laboratory detection of ciprofloxacin resistance in Neisseria meningitidis” (2009)
